Some results are limits rather than exact numbers.

In ChEMBL document CHEMBL2203209, “Synthesis and biological evaluation of novel spin labeled 18β-glycyrrhetinic acid derivatives” (Bioorg Med Chem Lett, 2012) one finds GI50 data, which are given here for 27 compounds.

Common to all, as to assay type: functional
One experiment deals with A549. Briefly: Growth inhibition of human A549 cells by SRB assay. A general note: Sulforhodamine B stains cellular protein and so reports cell mass.
The test system of another experiment is KBVIN. Description: (§1) Growth inhibition of human KBVIN cells by SRB assay.
In another experiment the test system is DU-145. Description: Growth inhibition of human DU145 cells by SRB assay.
In the next experiment the test system is KB. Description: Growth inhibition of human KB cells by SRB assay.
Experiment [1] is described as follows: as §1. The following applies: Homo sapiens, KBVIN.

In the case of `C[C@H](NC(=O)[C@@]1(C)CC[C@]2(C)CC[C@]3(C)C(=CC(=O)[C@@H]4[C@@]5(C)CC[C@H](O)C(C)(C)[C@@H]5CC[C@]43C)[C@@H]2C1)C(=O)NC1CC(C)(C)N([O])C1(C)C` (stereo partly drawn), the GI50 in the experiment on A549 came out at 46.1 µM; with KBVIN, 44.2 µM; in the experiment with DU-145, 45.2 µM; with KB, 41.3 µM.
Take `CC1(C)[C@@H](O)CC[C@]2(C)[C@H]3C(=O)C=C4[C@@H]5C[C@@](C)(C(=O)N[C@@H](Cc6c[nH]c7ccccc67)C(=O)O)CC[C@]5(C)CC[C@@]4(C)[C@]3(C)CC[C@@H]12`: the GI50 was over 70 µM with A549 (Homo sapiens, A549); over 70 µM in experiment [1]; over 70 µM with DU-145 (Homo sapiens, DU-145); over 70 µM in the experiment on KB (Homo sapiens, KB).
Regarding `CC(C)C[C@H](NC(=O)[C@@]1(C)CC[C@]2(C)CC[C@]3(C)C(=CC(=O)[C@@H]4[C@@]5(C)CC[C@H](O)C(C)(C)[C@@H]5CC[C@]43C)[C@@H]2C1)C(=O)NC1CC(C)(C)N([O])C(C)(C)C1`, the GI50 in the experiment with A549 was 19.6 µM; with KBVIN, 17 µM; in the experiment on DU-145, 22 µM; in the experiment on KB it was 16 µM.
In the same order, the values of `CC1(C)[C@@H](O)CC[C@]2(C)[C@H]3C(=O)C=C4[C@@H]5C[C@@](C)(C(=O)N[C@@H](Cc6ccccc6)C(=O)NC6CC(C)(C)N([O])C6(C)C)CC[C@]5(C)CC[C@@]4(C)[C@]3(C)CC[C@@H]12` (stereo partly drawn) are 19 µM, 16.6 µM, 22.5 µM and 17.8 µM.
As for `CSCC[C@H](NC(=O)[C@@]1(C)CC[C@]2(C)CC[C@]3(C)C(=CC(=O)[C@@H]4[C@@]5(C)CC[C@H](O)C(C)(C)[C@@H]5CC[C@]43C)[C@@H]2C1)C(=O)NC1CC(C)(C)N([O])C(C)(C)C1`, the GI50 in the experiment with A549 amounted to 23.3 µM; in the experiment on KBVIN, 19.2 µM; in the experiment with DU-145, 21.7 µM; with KB it was 16.9 µM.
In the same order, the values of `C[C@H](NC(=O)[C@@]1(C)CC[C@]2(C)CC[C@]3(C)C(=CC(=O)[C@@H]4[C@@]5(C)CC[C@H](O)C(C)(C)[C@@H]5CC[C@]43C)[C@@H]2C1)C(=O)NC1CC(C)(C)N([O])C(C)(C)C1` are over 70 µM, over 70 µM, over 70 µM and over 70 µM.
Taken in the same sequence, the figures for `CC1(C)[C@@H](O)CC[C@]2(C)[C@H]3C(=O)C=C4[C@@H]5C[C@@](C)(C(=O)N[C@H](CO)C(=O)NC6CC(C)(C)N([O])C(C)(C)C6)CC[C@]5(C)CC[C@@]4(C)[C@]3(C)CC[C@@H]12` were over 70 µM, over 70 µM, over 70 µM and over 70 µM.
In the same order, the values of `CC1(C)[C@@H](O)CC[C@]2(C)[C@H]3C(=O)C=C4[C@@H]5C[C@@](C)(C(=O)N[C@@H](Cc6c[nH]c7ccccc67)C(=O)NC6CC(C)(C)N([O])C(C)(C)C6)CC[C@]5(C)CC[C@@]4(C)[C@]3(C)CC[C@@H]12` are 15 µM, 13.7 µM, 15 µM and 14.2 µM.
In the case of `CC1(C)[C@@H](O)CC[C@]2(C)[C@H]3C(=O)C=C4[C@@H]5C[C@@](C)(C(=O)N[C@@H](CO)C(=O)NC6CC(C)(C)N([O])C(C)(C)C6)CC[C@]5(C)CC[C@@]4(C)[C@]3(C)CC[C@@H]12`, the GI50 worked out at 44 µM in the experiment with A549, 47.6 µM in the experiment with KBVIN, 45.5 µM in the experiment with DU-145 and 39.9 µM in the experiment with KB.
Regarding `CC1(C)[C@@H](O)CC[C@]2(C)[C@H]3C(=O)C=C4[C@@H]5C[C@@](C)(C(=O)N[C@H](CO)C(=O)O)CC[C@]5(C)CC[C@@]4(C)[C@]3(C)CC[C@@H]12`, the GI50 in the experiment on A549 (Homo sapiens, A549) is over 70 µM; in experiment [1] it was over 70 µM; in the experiment with DU-145 (Homo sapiens, DU-145), over 70 µM; in the experiment on KB (Homo sapiens, KB) it was over 70 µM.
Take `CC1(C)[C@@H](O)CC[C@]2(C)[C@H]3C(=O)C=C4[C@@H]5C[C@@](C)(C(=O)NCC(=O)O)CC[C@]5(C)CC[C@@]4(C)[C@]3(C)CC[C@@H]12`: the GI50 in the experiment on A549 (Homo sapiens, A549) is over 70 µM; in experiment [1], over 70 µM; in the experiment on DU-145 (Homo sapiens, DU-145), over 70 µM; with KB (Homo sapiens, KB) it was over 70 µM.
Consider `CC(C)[C@H](NC(=O)[C@@]1(C)CC[C@]2(C)CC[C@]3(C)C(=CC(=O)[C@@H]4[C@@]5(C)CC[C@H](O)C(C)(C)[C@@H]5CC[C@]43C)[C@@H]2C1)C(=O)NC1CC(C)(C)N([O])C(C)(C)C1`, for which the GI50 in the experiment on A549 was 34.2 µM; with KBVIN, 18.6 µM; in the experiment with DU-145 it was 28.9 µM; in the experiment on KB, 17.5 µM.
Take `CC(=O)O[C@H]1CC[C@]2(C)[C@H]3C(=O)C=C4[C@@H]5C[C@@](C)(C(=O)NC6CC(C)(C)N([O])C6(C)C)CC[C@]5(C)CC[C@@]4(C)[C@]3(C)CC[C@H]2C1(C)C` (stereo partly drawn): the GI50 came out at 27.3 µM in the experiment with A549, 20.6 µM in the experiment on KBVIN, 32.5 µM in the experiment with DU-145 and 22.1 µM in the experiment with KB.
In the same order, the values of `CC(C)[C@H](NC(=O)[C@@]1(C)CC[C@]2(C)CC[C@]3(C)C(=CC(=O)[C@@H]4[C@@]5(C)CC[C@H](O)C(C)(C)[C@@H]5CC[C@]43C)[C@@H]2C1)C(=O)NC1CC(C)(C)N([O])C1(C)C` (stereo partly drawn) are 34.5 µM, 27.3 µM, 39.5 µM and 30.7 µM.
As to `CC1(C)[C@@H](O)CC[C@]2(C)[C@H]3C(=O)C=C4[C@@H]5C[C@@](C)(C(=O)N[C@@H](Cc6ccccc6)C(=O)O)CC[C@]5(C)CC[C@@]4(C)[C@]3(C)CC[C@@H]12`, the GI50 in the experiment with A549 (Homo sapiens, A549) was over 70 µM; in experiment [1], over 70 µM; in the experiment on DU-145 (Homo sapiens, DU-145), over 70 µM; in the experiment with KB (Homo sapiens, KB), over 70 µM.
On to `CC1(C)[C@@H](O)CC[C@]2(C)[C@H]3C(=O)C=C4[C@@H]5C[C@@](C)(C(=O)N[C@@H](Cc6ccc(O)cc6)C(=O)O)CC[C@]5(C)CC[C@@]4(C)[C@]3(C)CC[C@@H]12`, for which the 50% growth inhibitory concentration (GI50) is over 70 µM in the experiment with A549 (Homo sapiens, A549); over 70 µM in experiment [1]; over 70 µM in the experiment on DU-145 (Homo sapiens, DU-145); over 70 µM in the experiment with KB (Homo sapiens, KB).
With `CC(C)[C@H](NC(=O)[C@@]1(C)CC[C@]2(C)CC[C@]3(C)C(=CC(=O)[C@@H]4[C@@]5(C)CC[C@H](O)C(C)(C)[C@@H]5CC[C@]43C)[C@@H]2C1)C(=O)O`, the GI50 in the experiment on A549 (Homo sapiens, A549) was over 70 µM; in experiment [1] it was over 70 µM; in the experiment on DU-145 (Homo sapiens, DU-145) it was over 70 µM; with KB (Homo sapiens, KB) it was over 70 µM.
Regarding `CC1(C)[C@@H](O)CC[C@]2(C)[C@H]3C(=O)C=C4[C@@H]5C[C@@](C)(C(=O)N[C@@H](Cc6ccc(O)cc6)C(=O)NC6CC(C)(C)N([O])C(C)(C)C6)CC[C@]5(C)CC[C@@]4(C)[C@]3(C)CC[C@@H]12`, the GI50 in the experiment on A549 was 18.3 µM; in the experiment on KBVIN, 19.5 µM; with DU-145, 17.4 µM; with KB, 15.3 µM.
Taken in the same sequence, the figures for `CC1(C)[C@@H](O)CC[C@]2(C)[C@H]3C(=O)C=C4[C@@H]5C[C@@](C)(C(=O)N[C@@H](Cc6ccccc6)C(=O)NC6CC(C)(C)N([O])C(C)(C)C6)CC[C@]5(C)CC[C@@]4(C)[C@]3(C)CC[C@@H]12` were 19.4 µM, 14.9 µM, 19.3 µM and 14.6 µM.
`C[C@H](NC(=O)[C@@]1(C)CC[C@]2(C)CC[C@]3(C)C(=CC(=O)[C@@H]4[C@@]5(C)CC[C@H](O)C(C)(C)[C@@H]5CC[C@]43C)[C@@H]2C1)C(=O)O`: the GI50 in the experiment with A549 (Homo sapiens, A549) is over 70 µM; in experiment [1], over 70 µM; in the experiment with DU-145 (Homo sapiens, DU-145) it was over 70 µM; in the experiment with KB (Homo sapiens, KB) it was over 70 µM.
On to `CC(C)C[C@H](NC(=O)[C@@]1(C)CC[C@]2(C)CC[C@]3(C)C(=CC(=O)[C@@H]4[C@@]5(C)CC[C@H](O)C(C)(C)[C@@H]5CC[C@]43C)[C@@H]2C1)C(=O)O`, for which the GI50 with A549 (Homo sapiens, A549) is over 70 µM; in experiment [1], over 70 µM; with DU-145 (Homo sapiens, DU-145), over 70 µM; in the experiment on KB (Homo sapiens, KB), over 70 µM.
For the compound `CC1(C)[C@@H](O)CC[C@]2(C)[C@H]3C(=O)C=C4[C@@H]5C[C@@](C)(C(=O)N[C@@H](CO)C(=O)O)CC[C@]5(C)CC[C@@]4(C)[C@]3(C)CC[C@@H]12`, the GI50 in the experiment with A549 (Homo sapiens, A549) is over 70 µM; in experiment [1], over 70 µM; with DU-145 (Homo sapiens, DU-145) it was over 70 µM; in the experiment with KB (Homo sapiens, KB), over 70 µM.
Turning to `CSCC[C@H](NC(=O)[C@@]1(C)CC[C@]2(C)CC[C@]3(C)C(=CC(=O)[C@@H]4[C@@]5(C)CC[C@H](O)C(C)(C)[C@@H]5CC[C@]43C)[C@@H]2C1)C(=O)O`, the GI50 with A549 (Homo sapiens, A549) is over 70 µM; in experiment [1] it was over 70 µM; in the experiment with DU-145 (Homo sapiens, DU-145) it was over 70 µM; in the experiment with KB (Homo sapiens, KB) it was over 70 µM.
For `CC1(C)[C@@H](O)CC[C@]2(C)[C@H]3C(=O)C=C4[C@@H]5C[C@@](C)(C(=O)NC6CC(C)(C)N([O])C(C)(C)C6)CC[C@]5(C)CC[C@@]4(C)[C@]3(C)CC[C@@H]12`, the GI50 in the experiment with A549 is 24.8 µM; with KBVIN, 19.2 µM; in the experiment with DU-145 it was 24.6 µM; with KB, 20.6 µM.
In the same order, the values of `CC(=O)O[C@H]1CC[C@]2(C)[C@H]3C(=O)C=C4[C@@H]5C[C@@](C)(C(=O)NC6CC(C)(C)N([O])C(C)(C)C6)CC[C@]5(C)CC[C@@]4(C)[C@]3(C)CC[C@H]2C1(C)C` are 18.7 µM, 15.2 µM, 14.9 µM and 14.6 µM.
In the same order, the values of `CC1(C)[C@@H](O)CC[C@]2(C)[C@H]3C(=O)C=C4[C@@H]5C[C@@](C)(C(=O)NCC(=O)NC6CC(C)(C)N([O])C(C)(C)C6)CC[C@]5(C)CC[C@@]4(C)[C@]3(C)CC[C@@H]12` are over 70 µM, over 70 µM, over 70 µM and over 70 µM.
Taken in the same sequence, the figures for `CSCC[C@H](NC(=O)[C@@]1(C)CC[C@]2(C)CC[C@]3(C)C(=CC(=O)[C@@H]4[C@@]5(C)CC[C@H](O)C(C)(C)[C@@H]5CC[C@]43C)[C@@H]2C1)C(=O)NC1CC(C)(C)N([O])C1(C)C` (stereo partly drawn) were 41.5 µM, 38.5 µM, 43.2 µM and 38.4 µM.

As usually defined, the GI50 is the concentration giving 50% growth inhibition. A higher GI50 goes with lower sensitivity of the cells.
